What was measured:
[1] = molecular target: Xanthine dehydrogenase/oxidase (Homo sapiens, UniProt P47989); assay: Inhibition of xanthine oxidase (unknown origin) at 10 uM using xanthine as substrate incubated for 15 mins relative to control; details: 0.25 h
RAW264.7 [2] = assay: Anti-inflammatory activity in mouse RAW264.7 cells assessed as inhibition of LPS-induced NO production pretreated with compounds followed by LPS stimulation incubated for 24 hrs by Griess assay; format: functional, cell-based
RAW264.7 [3] = assay: Growth inhibition of mouse RAW264.7 cells relative to control; format: cell-based
[4] = molecular target: T1, Tyrosine-protein phosphatase non-receptor type 1 (Homo sapiens) (UniProt P18031); assay: Inhibition of recombinant human PTP1B expressed in Escherichia coli BL21 at 10 uM using […] as substrate […] for 5 mins followed by substrate addition measured after 10 mins relative to control
T1 sequence (whole entry): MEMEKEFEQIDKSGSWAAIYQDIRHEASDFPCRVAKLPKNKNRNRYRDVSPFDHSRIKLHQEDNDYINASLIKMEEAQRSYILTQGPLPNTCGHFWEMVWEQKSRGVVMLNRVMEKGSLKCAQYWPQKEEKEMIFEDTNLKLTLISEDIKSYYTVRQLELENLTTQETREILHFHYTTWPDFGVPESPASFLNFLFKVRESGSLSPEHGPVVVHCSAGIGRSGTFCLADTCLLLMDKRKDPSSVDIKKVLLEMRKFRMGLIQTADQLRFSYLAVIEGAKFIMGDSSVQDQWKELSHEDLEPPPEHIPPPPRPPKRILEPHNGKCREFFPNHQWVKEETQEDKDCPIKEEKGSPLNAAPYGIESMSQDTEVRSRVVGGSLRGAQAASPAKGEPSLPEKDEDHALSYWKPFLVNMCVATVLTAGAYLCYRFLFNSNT

Xanthine dehydrogenase/oxidase, sequence (P47989 whole entry): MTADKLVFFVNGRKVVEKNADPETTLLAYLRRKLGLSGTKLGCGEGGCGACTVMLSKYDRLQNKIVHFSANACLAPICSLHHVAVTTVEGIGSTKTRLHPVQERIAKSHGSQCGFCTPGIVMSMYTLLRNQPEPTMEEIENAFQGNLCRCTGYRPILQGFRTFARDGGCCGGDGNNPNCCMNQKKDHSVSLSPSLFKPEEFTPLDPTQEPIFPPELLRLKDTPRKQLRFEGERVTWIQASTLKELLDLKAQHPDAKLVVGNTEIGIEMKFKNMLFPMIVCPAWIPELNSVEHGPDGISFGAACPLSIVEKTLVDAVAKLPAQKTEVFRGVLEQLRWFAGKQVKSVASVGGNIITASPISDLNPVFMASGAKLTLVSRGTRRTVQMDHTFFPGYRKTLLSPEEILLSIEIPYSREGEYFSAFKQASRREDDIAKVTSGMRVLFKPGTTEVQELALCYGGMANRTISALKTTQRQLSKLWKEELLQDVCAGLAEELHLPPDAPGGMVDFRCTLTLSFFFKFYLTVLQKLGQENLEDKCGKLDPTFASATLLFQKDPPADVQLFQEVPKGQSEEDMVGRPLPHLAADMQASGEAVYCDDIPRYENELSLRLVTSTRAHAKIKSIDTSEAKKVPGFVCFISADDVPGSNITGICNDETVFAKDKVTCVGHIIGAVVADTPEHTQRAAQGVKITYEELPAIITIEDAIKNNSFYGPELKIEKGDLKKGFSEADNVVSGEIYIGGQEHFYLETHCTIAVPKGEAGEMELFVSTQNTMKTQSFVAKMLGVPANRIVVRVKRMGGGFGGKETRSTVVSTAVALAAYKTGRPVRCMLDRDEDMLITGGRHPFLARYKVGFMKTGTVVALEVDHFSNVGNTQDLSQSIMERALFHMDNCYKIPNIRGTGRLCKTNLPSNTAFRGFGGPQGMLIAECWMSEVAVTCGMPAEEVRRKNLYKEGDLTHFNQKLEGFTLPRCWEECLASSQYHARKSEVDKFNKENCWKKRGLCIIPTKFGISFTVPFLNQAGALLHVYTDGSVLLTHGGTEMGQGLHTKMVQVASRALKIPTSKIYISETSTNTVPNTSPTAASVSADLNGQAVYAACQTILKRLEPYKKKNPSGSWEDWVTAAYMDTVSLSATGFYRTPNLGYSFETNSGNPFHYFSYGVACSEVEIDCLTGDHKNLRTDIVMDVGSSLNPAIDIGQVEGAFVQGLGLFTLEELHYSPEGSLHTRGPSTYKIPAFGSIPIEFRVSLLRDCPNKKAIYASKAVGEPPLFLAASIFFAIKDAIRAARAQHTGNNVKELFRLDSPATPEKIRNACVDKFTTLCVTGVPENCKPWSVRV

`CCCCCC[C@H](O)[C@@H]1/C(C(=O)O)=C(/C(=O)O)C[C@H]([C@@H](O)[C@H](O)CCCC)CC2=C(C(=O)OC2=O)[C@H]1O` was tested, and the inhibition at 10 µM [1] was 67%.

With `CCCCCC[C@H](O)[C@@H]1/C(C(=O)O)=C(/C(=O)O)C[C@H]([C@@H](O)[C@H]2CC=CC(=O)O2)CC2=C(C(=O)OC2=O)[C@H]1O` the IC50 (RAW264.7 [2]) was 1900 nM and the “growth inhibition (GI)” value (RAW264.7 [3]) was -14.5%.

`CCCCCCC[C@@H](CC1=C(/C=C/CCC/C=C\CO)C(=O)OC1=O)C1=C(C)C(=O)OC1=O` showed an inhibition [4] of 76%.

Reference: ChEMBL document CHEMBL4334520, “Nonadride and Spirocyclic Anhydride Derivatives from the Plant Endophytic Fungus Talaromyces purpurogenus” (J Nat Prod, 2019)
